For 24 molecules, IC50 results are on record in patent publication US8802665B2, “Pyrrolidine derivatives” (Hoffman-La Roche Inc., priority 2012, dated 2014).

Where a name gives a salt, the structure may show the parent alone.

The IC50 is the point on the concentration scale where inhibition reaches its midpoint.

This assay deals with human Cat S (Homo sapiens (Human), UniProt P25774). The assay is described as follows: Cathepsin enzyme inhibition assay (fluorogenic peptide substrate cleavage). Particulars: human Cathepsin S 1 nM, substrate Z-Val-Val-Arg-AMC 20 μM, pH 6.5; read-out: Ic50 CatS: human. It counts as biochemical. As for the experimental part: Cathepsin Enzyme Inhibition Assay
Enzyme activity is measured by observing the increase in fluorescence intensity caused by cleavage of a peptide substrate containing a fluorophore whose emission is quenched in the intact peptide. • Assay buffer: 100 mM potassium phosphate pH 6.5, EDTA-Na 5 mM, Triton X-100 0.001%, DTT 5 mM. • Enzymes (all at 1 nM): human and mouse Cathepsin S, Cat K, Cat B, Cat L. • Substrate (20 μM): Z-Val-Val-Arg-AMC, except for Cat K which uses Z-Leu-Arg-AMC (both from Bachem). • Z=Benzyloxycarbonyl. • AMC=7-Amino-4-Methyl-Coumarin. • DTT=dithiothreitol. • Final volume: 100 μL. • Excitation 360 nm, Emission 465 nm.
Enzyme is added to the substance dilutions in 96-well microtitre plates and the reaction is started with substrate. Fluorescence emission is measured over 20 minutes, during which time a linear increase is observed in the absence of inhibitor. IC50 are calculated by standard methods.
Inhibition of human Cat S, mouse Cat S, human Cat K, human Cat B, human Cat L and mouse Cat L have been measured separately. The results obtained for human Cat S for representative compounds of the invention are expressed in the following table in μM.

Sequence of human Cat S (P25774 115-331): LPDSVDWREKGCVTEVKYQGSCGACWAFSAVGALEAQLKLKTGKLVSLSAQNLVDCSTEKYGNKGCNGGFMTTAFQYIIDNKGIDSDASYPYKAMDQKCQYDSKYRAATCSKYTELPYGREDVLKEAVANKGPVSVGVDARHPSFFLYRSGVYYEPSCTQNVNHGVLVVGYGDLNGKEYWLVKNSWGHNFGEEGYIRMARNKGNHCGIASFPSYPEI

As for `N#CC1(NC(=O)[C@@H]2C[C@@H](S(=O)(=O)c3ccccc3Cl)CN2C(=O)C2CCN2C2CCCCC2)CC1` (stereo partly drawn) [Example 1, (2S,4R)-4-(2-Chlorophenylsulfonyl)-N-(1-cyanocyclopropyl)-1-(1-cyclohexylazetidine-2-carbonyl)pyrrolidine-2-carboxamide], the half-maximal inhibitory concentration (IC50) worked out at 1.7 nM.
Regarding `N#CC1(NC(=O)[C@@H]2C[C@@H](S(=O)(=O)c3ccccc3Cl)CN2C(=O)C2CCN2C2CCC(F)(F)CC2)CC1` (stereo partly drawn) [Example 2, (2S,4R)-4-(2-Chlorophenylsulfonyl)-N-(1-cyanocyclopropyl)-1-(1-(4,4-difluorocyclohexyl)azetidine-2-carbonyl)pyrrolidine-2-carboxamide], the half-maximal inhibitory concentration (IC50) is 1 nM.
The value for `CC1(C)CCC(N2CCC2C(=O)N2C[C@H](S(=O)(=O)c3ccccc3Cl)C[C@H]2C(=O)NC2(C#N)CC2)CC1` (stereo partly drawn) [Example 3, (2S,4R)-4-(2-Chlorophenylsulfonyl)-N-(1-cyanocyclopropyl)-1-(1-(4,4-dimethylcyclohexyl)azetidine-2-carbonyl)pyrrolidine-2-carboxamide] was 3.8 nM; that for `Cc1nsc(N2CCC(N3CCC3C(=O)N3C[C@H](S(=O)(=O)c4ccccc4Cl)C[C@H]3C(=O)NC3(C#N)CC3)CC2)n1` (stereo partly drawn) [Example 4, (2S,4R)-4-(2-Chlorophenylsulfonyl)-N-(1-cyanocyclopropyl)-1-(1-(1-(3-methyl-1,2,4-thiadiazol-5-yl)piperidin-4-yl)azetidine-2-carbonyl)pyrrolidine-2-carboxamide formate] was 0.9 nM.
The value for `N#CC1(NC(=O)[C@@H]2C[C@@H](S(=O)(=O)c3ccccc3Cl)CN2C(=O)C2CCN2C2CCOCC2)CC1` (stereo partly drawn) [Example 5, (2S,4R)-4-(2-Chlorophenylsulfonyl)-N-(1-cyanocyclopropyl)-1-(1-(tetrahydro-2H-pyran-4-yl)azetidine-2-carbonyl)pyrrolidine-2-carboxamide formate] was 0.8 nM; that for `CC(=O)N1CCC(N2CCC2C(=O)N2C[C@H](S(=O)(=O)c3ccccc3Cl)C[C@H]2C(=O)NC2(C#N)CC2)CC1` (stereo partly drawn) [Example 6, (2S,4R)-1-(1-(1-Acetylpiperidin-4-yl)azetidine-2-carbonyl)-4-(2-chlorophenylsulfonyl)-N-(1-cyanocyclopropyl)pyrrolidine-2-carboxamide] was 1.3 nM; that for `N#CC1(NC(=O)[C@@H]2C[C@@H](S(=O)(=O)c3ccccc3Cl)CN2C(=O)C2CCN2C2CCN(CC(F)(F)F)CC2)CC1` (stereo partly drawn) [Example 7, (2S,4R)-4-(2-Chlorophenylsulfonyl)-N-(1-cyanocyclopropyl)-1-(1-(1-(2,2,2-trifluoroethyl)piperidin-4-yl)azetidine-2-carbonyl)pyrrolidine-2-carboxamide] was 3.9 nM.
The value for `CC1(C)CC(N2CCC2C(=O)N2C[C@H](S(=O)(=O)c3ccccc3Cl)C[C@H]2C(=O)NC2(C#N)CC2)CCO1` (stereo partly drawn) [Example 8, (2S,4R)-4-(2-Chlorophenylsulfonyl)-N-(1-cyanocyclopropyl)-1-(1-(2,2-dimethyltetrahydro-2H-pyran-4-yl)azetidine-2-carbonyl)pyrrolidine-2-carboxamide] was 2.5 nM; that for `N#CC1(NC(=O)[C@@H]2C[C@@H](S(=O)(=O)c3ccccc3Cl)CN2C(=O)C2CCN2C2CCCC2)CC1` (stereo partly drawn) [Example 9, (2S,4R)-4-(2-Chlorophenylsulfonyl)-N-(1-cyanocyclopropyl)-1-(1-cyclopentylazetidine-2-carbonyl)pyrrolidine-2-carboxamide] was 2 nM; that for `N#CC1(NC(=O)[C@@H]2C[C@@H](S(=O)(=O)c3ccccc3Cl)CN2C(=O)C2CCN2C2CCSCC2)CC1` (stereo partly drawn) [Example 10, (2S,4R)-4-(2-Chlorophenylsulfonyl)-N-(1-cyanocyclopropyl)-1-(1-(tetrahydro-2H-thiopyran-4-yl)azetidine-2-carbonyl)pyrrolidine-2-carboxamide] was 2.2 nM.
For `CCOC(=O)N1CCC(N2CCC2C(=O)N2C[C@H](S(=O)(=O)c3ccccc3Cl)C[C@H]2C(=O)NC2(C#N)CC2)CC1` (stereo partly drawn) [Example 11, Ethyl 4-(2-((2S,4R)-4-(2-chlorophenylsulfonyl)-2-(1-cyanocyclopropylcarbamoyl)pyrrolidine-1-carbonyl)azetidin-1-yl)piperidine-1-carboxylate], the IC50 came to 1.7 nM.
Next, `CS(=O)(=O)N1CCC(N2CCC2C(=O)N2C[C@H](S(=O)(=O)c3ccccc3Cl)C[C@H]2C(=O)NC2(C#N)CC2)CC1` (stereo partly drawn) [Example 12, (2S,4R)-4-(2-Chlorophenylsulfonyl)-N-(1-cyanocyclopropyl)-1-(1-(1-(methylsulfonyl)piperidin-4-yl)azetidine-2-carbonyl)pyrrolidine-2-carboxamide]: 2.7 nM; `CCOC(=O)N1CCC(N2CCC2C(=O)N2C[C@H](Sc3ccc(F)cc3Cl)C[C@H]2C(=O)NC2(C#N)CC2)CC1` (stereo partly drawn) [Example 13]: 6.7 nM.
The value for `CCOC(=O)N1CCC(N2CCC2C(=O)N2C[C@H](S(=O)(=O)c3ccc(F)cc3Cl)C[C@H]2C(=O)NC2(C#N)CC2)CC1` (stereo partly drawn) [Example 14, Ethyl 4-(2-((2S,4R)-4-(2-chloro-4-fluorophenylsulfonyl)-2-(1-cyanocyclopropylcarbamoyl)pyrrolidine-1-carbonyl)azetidin-1-yl)piperidine-1-carboxylate] was 1.5 nM; that for `CCOC(=O)N1CCC(N2CCC2C(=O)N2C[C@H](Sc3ccc(Cl)cc3)C[C@H]2C(=O)NC2(C#N)CC2)CC1` (stereo partly drawn) [Example 15, Ethyl 4-(2-((2S,4R)-4-(4-chlorophenylthio)-2-(1-cyanocyclopropylcarbamoyl)pyrrolidine-1-carbonyl)azetidin-1-yl)piperidine-1-carboxylate] was 121 nM; that for `CCOC(=O)N1CCC(N2CCC2C(=O)N2C[C@H](Sc3ccccc3OC)C[C@H]2C(=O)NC2(C#N)CC2)CC1` (stereo partly drawn) [Example 16, Ethyl 4-(2-((2S,4R)-2-(1-cyanocyclopropylcarbamoyl)-4-(2-methoxyphenylthio)pyrrolidine-1-carbonyl)azetidin-1-yl)piperidine-1-carboxylate] was 1740 nM.
Consider `CCOC(=O)N1CCC(N2CCC2C(=O)N2C[C@H](Sc3ccccc3OC(F)(F)F)C[C@H]2C(=O)NC2(C#N)CC2)CC1` (stereo partly drawn) [Example 17, Ethyl 4-(2-((2S,4R)-2-(1-cyanocyclopropylcarbamoyl)-4-(2-(trifluoromethoxy)phenylthio)pyrrolidine-1-carbonyl)azetidin-1-yl)piperidine-1-carboxylate], for which the IC50 stood at 65.5 nM.
`CCOC(=O)N1CCC(N2CCC2C(=O)N2C[C@H](Sc3cccc(C(F)(F)F)c3)C[C@H]2C(=O)NC2(C#N)CC2)CC1` (stereo partly drawn) [Example 18, Ethyl 4-(2-((2S,4R)-2-(1-cyanocyclopropylcarbamoyl)-4-(3-(trifluoromethyl)phenylthio)pyrrolidine-1-carbonyl)azetidin-1-yl)piperidine-1-carboxylate]: the 50% inhibitory concentration (IC50) amounted to 8 nM.
The value for `CCOC(=O)N1CCC(N2CCC2C(=O)N2C[C@H](S(=O)(=O)c3cccc(Cl)c3)C[C@H]2C(=O)NC2(C#N)CC2)CC1` (stereo partly drawn) [Example 19, Ethyl 4-(2-((2S,4R)-4-(3-chlorophenylsulfonyl)-2-(1-cyanocyclopropylcarbamoyl)pyrrolidine-1-carbonyl)azetidin-1-yl)piperidine-1-carboxylate] was 1.8 nM.
The value for `CCOC(=O)N1CCC(N2CCC2C(=O)N2C[C@H](S(=O)(=O)c3ccc(C)cc3)C[C@H]2C(=O)NC2(C#N)CC2)CC1` (stereo partly drawn) [Example 20, Ethyl 4-(2-((2S,4R)-2-(1-cyanocyclopropylcarbamoyl)-4-tosylpyrrolidine-1-carbonyl)azetidin-1-yl)piperidine-1-carboxylate] was 1.4 nM; that for `CCOC(=O)N1CCC(N2CCC2C(=O)N2C[C@H](S(=O)(=O)c3ccccc3OC)C[C@H]2C(=O)NC2(C#N)CC2)CC1` (stereo partly drawn) [Example 21, Ethyl 4-(2-((2S,4R)-2-(1-cyanocyclopropylcarbamoyl)-4-(2-methoxyphenylsulfonyl)pyrrolidine-1-carbonyl)azetidin-1-yl)piperidine-1-carboxylate] was 9.2 nM.
The value for `CCOC(=O)N1CCC(N2CCC2C(=O)N2C[C@H](S(=O)(=O)c3ccc(Cl)cc3)C[C@H]2C(=O)NC2(C#N)CC2)CC1` (stereo partly drawn) [Example 22, Ethyl 4-(2-((2S,4R)-4-(4-chlorophenylsulfonyl)-2-(1-cyanocyclopropylcarbamoyl)pyrrolidine-1-carbonyl)azetidin-1-yl)piperidine-1-carboxylate] was 2.8 nM.
With `CCOC(=O)N1CCC(N2CCC2C(=O)N2C[C@H](S(=O)(=O)c3ccccc3OC(F)(F)F)C[C@H]2C(=O)NC2(C#N)CC2)CC1` (stereo partly drawn) [Example 23, Ethyl 4-(2-((2S,4R)-2-(1-cyanocyclopropylcarbamoyl)-4-(2-(trifluoromethoxy)phenylsulfonyl)pyrrolidine-1-carbonyl)azetidin-1-yl)piperidine-1-carboxylate], the IC50 was 4.1 nM.
Next, `CCOC(=O)N1CCC(N2CCC2C(=O)N2C[C@H](S(=O)(=O)c3cccc(C(F)(F)F)c3)C[C@H]2C(=O)NC2(C#N)CC2)CC1` (stereo partly drawn) [Example 24, Ethyl 4-(2-((2S,4R)-2-(1-cyanocyclopropylcarbamoyl)-4-(3-(trifluoromethyl)phenylsulfonyl)pyrrolidine-1-carbonyl)azetidin-1-yl)piperidine-1-carboxylate]: 1.6 nM.
